One block for each compound: values may come before it.
Legend:
[1] = tested on: plasmid DNA; assay: Bligh and Dyer extraction: DNA partitioning between aqueous and organic phase; type: physicochemical; details: for amount of lipid for complete partitioning of the DNA into the organic phase: preformed liposomes; for DNA partitioning into the organic phase versus charge ratio: polyvalent lipids compared with monovalent cationic lipids; for DNA partitioning: nonlipid cations, charge ratios up to and in excess of 4
Experimental: […] This mixture of solvents and water is equivalent to that used in the preparation of a Bligh and Dyer monophase (Bligh and Dyer, Can. J. Biochem. Physiol. 37:91-97 (1959)). Typically, DNA was added to achieve a final concentration of […] in solution while lipid was added at various concentrations. Trace quantities of 3H-plasmid DNA were added such that 2000 to 4000 dpm were present per 10 g unlabelled DNA. The reaction mixtures were incubated at room temperature for 30 min in a total volume of 1 mL. Subsequently the Bligh and Dyer monophase was partitioned into a two phase system by the addition of water and chloroform (250 L each). The samples were mixed by vortexing and the separation of the lower organic and upper aqueous phases was facilitated by centrifugation at 2000 rpm for 5 min at room temperature. The aqueous phase was removed and retained for scintillation counting. The solvent phase was dried using a stream of nitrogen gas, and the resulting film was resuspended in SOLVABLE solubilizing agent (Dupont NEN, Boston, Mass., USA) and incubated at 50° C. for 1 hour. […] PICOFLUOR scintillant (Canberra Packard, Meriden, Conn., USA) was added to all samples and the radioactivity (3H-DNA) was measured using a Packard TR 1900 Scintillation Counter (Canberra Packard).
Assays evaluating the stability of charge-neutralized, lipid-nucleic acid complexes were done in the presence of varying concentration of NaCl and OGP. Briefly, cationic lipid-nucleic acid complexes were prepared under conditions where 100% of the plasmid was expected to be recovered in the organic phase. NaCl or OGP was then added to the monophase system and incubations carried out at room temperature for 15 min. Bligh and Dyer extractions were performed as described above. The binding of calcium, L-lysine, and poly-L-lysine to the plasmid was evaluated using a modification of the above procedure. These nonlipid cationic materials were dissolved at various concentrations in sterile distilled water and incubated with the plasmid ([…] final concentration in water) at room temperature for 30 min in a final volume of 250 L. Reaction volumes were adjusted to 1 mL with chloroform:methanol (1:2.1) to produce a monophase. Bligh and Dyer extractions were then performed as described.

[2] = Plasmid encapsulation (protection from external medium) by anion exchange chromatography on DEAE Sepharose CL-6B; type: physicochemical; details: for cationic lipid concentration required for optimal plasmid encapsulation: detergent dialysis
Experimental: The extent of encapsulation or protection of the plasmid from the external medium was assessed by anion exchange chromatography as follows: a 50 μl aliquot of each sample was eluted on a DEAE Sepharose CL-6B column and the fractions were assessed for both ^3H-plasmid and ^14C-lipid by scintillation counting. Any exposed negative charges, such as those present on DNA molecules will bind-to the anion exchange column and will not elute with the ^14C-lipid. DNA which has its negative charge, “protected” or non-exposed will not bind to the anion exchange resin and will elute with the ^14C-lipid. Alternatively, plasmid DNA was measured using the indicator dye, PicoGreen®.

[3] = tested on: plasmid DNA; details: DNA condensed by addition of polylysine (Reimer et al., 1995); cited from earlier work
[4] = tested on: plasmid DNA; assay: TO-PRO-1 dye intercalation assay (DNA condensation); type: physicochemical; details: Bligh and Dyer monophase; 1 μM TO-PRO-1; 533 nm
Experimental: The fluorochrome TO-PRO-1 was used to evaluate the state of condensation of the plasmid in the charge-neutralized lipid-nucleic acid complex. TO-PRO-1 was used in this study due to its stable intercalation into the plasmid as well as the high sensitivity in the fluorescence detection compared with the more common intercalator ethidium bromide (see, Hirons, et al., Cytometry 15:129-140 (1994)). Plasmid was dissolved in either the Bligh and Dyer monophase or in 100 mM OGP. Poly-L-lysine or DODAC were each added to 10 g plasmid at a 1:1 charge ratio.
Evaluation of the hydrophobic, charge-neutralized lipid-nucleic acid complexes was carried out by assessing the ability of a small fluorescent probe to bind to the nucleic acid in the complex. […] TO-PRO-1 was then added to a final concentration of 1 μM and fluorescence was measured at 533 nm (probe excitation at 509 nm). […] However, when plasmid DNA was added (10 μg/mL) there was a >600 fold increase in fluorescence at 533 nm. […]
The fluorochrome (TO-PRO-1) was used to evaluate the state of condensation of the DNA in the lipid-nucleic acid particle. […] To measure fluorescence, spectrofluorometric measurements were performed using a Luminescence Spectrometer 50B (Perkin Elmer Ltd., Buckinghamshire, England) with an excitation wavelength of 509 nm and an emission wavelength of 533 nm. […]

[5] = tested on: plasmid DNA; assay: Agarose gel electrophoresis: DNA mobility; type: physicochemical
Experimental: Complexes involving plasmid and poly-L-lysine were formed at a nucleic acid concentration of 10 µg/mL and a 1:1 charge ratio in the presence of 100 mM OGP. Complexes involving the cationic lipid DODAC and plasmid were formed at a plasmid concentration of 10 µg/mL and increasing concentrations of DODAC (10 to 320 nmoles/mL). The mixtures were incubated at room temperature for 30 min prior to loading onto a 0.8% agarose gel. Electrophoresis was carried out in TBE buffer according to standard techniques (Sambrook, et al., Molecular Cloning: A Laboratory Manual, Second Edition, Cold Spring Harbor, N.Y. (1989)). Nucleic acids were visualized after staining the gel with ethidium bromide ([…], 20 min) by photography with UV transillumination.

amount of lipid for complete partitioning of the DNA into the organic phase ([1]; 10 μg DNA): approximately 10 nmoles
stability of complex in presence of NaCl ([1]; Na+ in a 300-fold molar excess): did not cause partitioning
Compound: CCCCCCCC/C=C\CCCCCCCCOCC(C[N+](C)(C)CCNC(=O)C(CCCNCCCN)NCCCN)OCCCCCCCC/C=C\CCCCCCCC.O=C([O-])C(F)(F)F (stereo not drawn) [DOSPA, N-(-(2,3-dioleyloxy)propyl)-N-(2-(sperminecarboxamido)ethyl)-N,N-dimethylammonium trifluoroacetate]
DNA partitioning into the organic phase versus charge ratio [1]: a slightly greater charge ratio was required

TO-PRO-1 fluorescence / binding to DNA [4]: no fluorescence was observed
DNA mobility in agarose gel ([5]; 1:1 charge ratio, 100 mM OGP): significantly reduced mobility
Compound: poly L-lysine hydrobromide [poly-L-lysine]
condensation index [3]: ≈ 1.0
DNA partitioning [1]: majority of the DNA was invariably recovered in the aqueous phase

cationic lipid concentration required for optimal plasmid encapsulation [2]: 6.5%
Compound: CCCCCCCCCCCCCCCCCC[N+](C)(C)CCCCCCCCCCCCCCCCCC.[Cl-] [DSDAC]

cationic lipid concentration required for optimal plasmid encapsulation [2]: 6.5%
Compound: CCCCCCCC/C=C\CCCCCCCCOCC(C[N+](C)(C)C)OCCCCCCCC/C=C\CCCCCCCC.[Cl-] (stereo not drawn) [DOTMA, N-(1-(2,3-dioleyloxy)propyl)-N,N,N-trimethylammonium chloride]

The next lines start with the compound.

Compound: CCCCCCCCCCCCCCCCCCN(CCCCCCCCCCCCCCCCCC)C(=O)CNC(=O)C(CCCNCCCN)NCCCN (stereo not drawn) [DOGS]
amount of lipid for complete partitioning of the DNA into the organic phase ([1]; 10 μg DNA): approximately 10 nmoles
DNA partitioning into the organic phase versus charge ratio [1]: a slightly greater charge ratio was required

Compound: 1-O-(2′-(ω-methoxypolyethyleneglycol)succinoyl)-2-N-myristoyl-sphingosine [PEG-C14]
PEG-C14 concentration giving best entrapment ([2]; 7.5% DODAC and DOPE, dialysis method): 10 mol %

Compound: [Ca+2].[Cl-].[Cl-] [calcium, calcium chloride]
DNA partitioning [1]: majority of the DNA was invariably recovered in the aqueous phase

Compound: NCCCC[C@H](N)C(=O)O [lysine, L-lysine]
DNA partitioning [1]: majority of the DNA was invariably recovered in the aqueous phase

Compound: CCCCCCCC/C=C\CCCCCCCC[N+](C)(C)CCCCCCCC/C=C\CCCCCCCC.[Cl-] [DODAC, N,N-dioleyl-N,N-dimethylammonium chloride]
cationic lipid concentration required for optimal plasmid encapsulation [2]: 8%
DNA partitioned into the organic phase ([1]; 10 μg DNA, 40 nmoles DODAC, OGP up to 20 mM): greater than 99%
DNA mobility in agarose gel ([5]; addition of 320 nmoles of DODAC): decrease in DNA migrating into the gel

Compound: CCCCCCCCCCCCCCOCC(C[N+](C)(C)CCO)OCCCCCCCCCCCCCC.[Br-] (stereo not drawn) [DMRIE, N-(1,2-dimyristyloxyprop-3-yl)-N,N-dimethyl-N-hydroxyethyl ammonium bromide]
cationic lipid concentration required for optimal plasmid encapsulation [2]: 8%
